For one assay, the system named is VMAT2. Further details: method as in PMID 25771452. As to conditions: racemic; cited from earlier work.
The target of a further assay is T1, human DAT (Homo sapiens, UniProt Q01959).
T1 construct: expressed in transfected cells
Put plainly: DAT uptake inhibition assay in HEK293 cells ([3H]MPP+). The format is cell-based. The protocol:
(§1) Human embryonic kidney 293 (HEK293) cells stably expressing the human isoforms of either DAT or SERT were maintained in Dulbecco’s Modified Eagle Medium (DMEM), supplemented with 10% fetal calf serum at a subconfluent state in humidified atmosphere (5% CO2, 37 °C).
(§2) Uptake inhibition assays were performed as described earlier. Briefly, HEK293 cells stably expressing human SERT or DAT were seeded onto poly- D-lysine (PDL) coated 96-well plates (40,000 cells well^−1) the day before an experiment. Prior to the uptake inhibition assay, DMEM was replaced with Krebs-HEPES buffer (KHB, 25 mM HEPES, 120 mM NaCl, 5 mM KCl, 1.2 mM CaCl2, 1.2 mM MgSO4, and 5 mM D-glucose, pH 7.3) and the cells were preincubated with test drugs for 5 min at room temperature. Uptake assays were initiated by adding 20 nM [^3H]MPP^+ to DAT cells or 100 nM [^3H]5-HT to SERT cells. After 180 s (DAT) or 60 s (SERT), the tritiated substrate was removed by aspiration. Cells were washed once with ice-cold KHB, then lysed in 1% sodium dodecyl sulfate (SDS) and subjected to liquid scintillation counting to quantify tritium accumulated in each sample. Non-specific uptake was determined in the presence of mazindol (1 µM) for DAT or paroxetine (1 µM) for SERT and subtracted throughout.

A further assay deals with extracellular DA. Also noted: method as in PMID 23178523. As to conditions: racemic; cited from earlier work.
Assay [1] concerns the target T2, human SERT (Homo sapiens, UniProt P31645).
T2 construct: expressed in transfected cells
Put plainly: [3H]5-HT release assay in HEK293 cells (superfusion). The format is cell-based. The conditions noted are these: 10 µM, SERT-expressing HEK293 cells. The protocol:
HEK293 cells stably expressing SERT were seeded onto PDL-coated glass coverslips (5 mm diameter) that were placed into 96-well plates at a density of 40,000 cells per well the day before the experiment. Cells were preloaded with [^3H]5-HT (0.4 µM, 20 min at 37 °C). Subsequently, the cells were transferred into small chambers with a total volume of 200 µl and superfused with KHB at a flow rate of 0.7 ml per min for 40 min to establish a stable baseline before the collection of 2-min fractions was initiated. For each experiment, three basal fractions were collected before the cells were exposed to various concentrations (given in the figure legends) of the test drugs for five fractions. Subsequently, the cells were superfused with 1% SDS for three final fractions that served to determine the total amount of radioactivity present within the cells at the end of each experimental run. The amount of tritium within each fraction was determined by liquid scintillation counting, and release was expressed as percentage of radioactivity released in relation to the total radioactivity present at the beginning of that fraction. Observations from superfusion experiments were excluded in case of premature exposure to SDS.

A further assay deals with C57BL/6N mice. Put plainly: Forced-swim test (FST). The conditions noted are these: mice. The assay is classed as in vivo. The protocol: (§3) All in vivo experiments were performed in adult mice (>6 weeks old). For the photometry and microdialysis experiments, which were carried out in Florida, male C57BL/6J mice from The Jackson Laboratory (Bar Harbor, ME, USA) were group-housed in polycarbonate cages (GM500, Tecniplast, Buguggiate, Italy) with lights on from 7 a.m. to 7 p.m. Food and water were provided ad libitum. Photometry and microdialysis experiments were performed in accordance with a protocol approved by the Institutional Animal Care and Use Committee at Florida Atlantic University. For the behavioral experiments, which were carried out in Vienna, C57BL/6N mice from Charles River (Sulzfeld, Germany) were group-housed in polycarbonate cages with lights on from 7 a.m. to 7 p.m. Food and water were provided ad libitum. Behavioral experiments were performed in accordance with a protocol approved by the Austrian national ethical committee on animal care and use (Bundesministerium für Wissenschaft und Forschung: BMWFW-66.009/0016-WF/V/3b/2015). All animal procedures were conducted in agreement with the ARRIVE guidelines and the U.K. Animal (Scientific Procedures) Act, 1986, and associated guidelines, EU Directive 2010/63/EU for animal experiments. Mice were given at least 1 week to acclimate before being used in any experiments.
For behavioral assays, animals were assigned to treatment groups and injected with test drugs by an unblinded observer.
The FST was performed as previously described. In brief, mice were placed for 6 min in a beaker (diameter: 19 cm, height: 23 cm), halfway filled with water (22–23 °C), and the immobility time was quantified using the software Videotrack (Viewpoint, Champagne au Mont d’Or, France). Immobility was defined as the absence of any movement, except for those required to keep the head above the water. The time spent immobile during the final 4 min of the test was used as a measure of behavioral despair. Animal sample size was confirmed using a post hoc analysis of the achieved power using G*Power3.1 [29]. Using a significance level (α) of 0.05 and an effect size f = 2.5 and a sample size of 6 animals/group we achieved the commonly accepted statistical power (1−β) of 0.8.

The subject of assay [2] is extracellular 5-HT in the NAc. Kind of assay: Fiber photometry with GRAB5-HT sensor in the NAc of freely moving mice. The assay is classed as in vivo. The conditions noted are these: 5 mg kg-1 intraperitoneal. The protocol:
as §3
Mice were anesthetized with isoflurane (5% induction, 2% maintenance) and placed into a stereotaxic frame (Kopf Instruments, Tujunga, CA, USA) oriented in the flat skull position. Ophthalmic ointment was applied to prevent drying of the eyes. Ketoprofen (10 mg kg^−1) was administered subcutaneously (s.c.), whereas bupivacaine and lidocaine were administered locally (s.c.; 100 µl of sterile saline containing 0.05% bupivacaine and 0.2% lidocaine) to the surgical site atop the head. A midline incision was made through the skin on the dorsal surface of the head to expose the skull. Fascia was removed, coordinates for the NAc were determined relative to bregma: anterior/posterior = 1.54 mm; medial/lateral = 0.7 mm; dorsal/ventral = −4.1 mm. A 1 mm burr hole was drilled through the skull. […] For the mice used for fiber photometry, 4*10^12 genome copies of AAV9-hSyn-5-HT2h or 10^10 genome copies of AAV-hSyn-DA2m were delivered into the NAc at an infusion rate of 100 nl min^−1 (total volume of 1 µl) using a 34-gauge needle attached to a 10 µl Nanofil microsyringe (Hamilton, Reno, NV, USA), as previously described. Following injection of the virus, an optical fiber was lowered through the burr hole and secured with glass ionomer cement. Three 1.6 mm screws (00-96X1/16 39052, Plastics One Inc., Roanoke, VA, USA) were affixed to the skull to support a cement stage that was created to secure the implanted guide cannulae or optical fiber. Mice were singly housed following surgery and allowed 6 days of recovery for the microdialysis experiments or 21 days for the photometry experiments. Food and water were available ad libitum.
To monitor light emitted from the G-protein coupled receptor-activation-based 5-HT (GRAB5-HT) and DA (GRABDA) sensors, fiber photometry was performed as described. Briefly, a light emitting diode (465 nm) (CLED_465, Doric Lenses, Quebec, QC, Canada), reflected through a dichroic mirror, was coupled to an optical fiber (200 µm core/225 cladding diameter; Thorlabs, Newton, NJ, USA) that was glued to a metal ferrule (Doric Lenses, Quebec, QC, Canada) and implanted into the NAc as described above. Emitted, band-pass filtered light (500–550 nm, FMC6, Doric Lenses, Quebec,QC, Canada) was detected with a photodetector (Newport Femtowatt silicone PIN; New Focus, San Jose, CA, USA). Data were recorded using a RZ5P lock-in amplifier (Tucker-Davis Technologies, Alachua, FL, USA) controlled with Synapse software. Sinusoidal excitation was delivered at 210 Hz by an LED driver Doric Lenses, LEDD_4) at low power mode. A demodulated signal was low-pass filtered at 6 Hz and digitized at 1017 Hz. […]

Assay [3] addresses T2, human SERT. Kind of assay: SERT uptake inhibition assay in HEK293 cells ([3H]5-HT). The format is cell-based. The protocol:
as §1, §2

The test system of the next assay is rat brain synaptosomes. Further details: method as in PMID 26738428. The conditions noted are these: cited from earlier work.

The IC50 is the midpoint of a concentration-inhibition curve. High values mean weaker potency, low ones greater potency.

T1 sequence (Q01959 whole entry): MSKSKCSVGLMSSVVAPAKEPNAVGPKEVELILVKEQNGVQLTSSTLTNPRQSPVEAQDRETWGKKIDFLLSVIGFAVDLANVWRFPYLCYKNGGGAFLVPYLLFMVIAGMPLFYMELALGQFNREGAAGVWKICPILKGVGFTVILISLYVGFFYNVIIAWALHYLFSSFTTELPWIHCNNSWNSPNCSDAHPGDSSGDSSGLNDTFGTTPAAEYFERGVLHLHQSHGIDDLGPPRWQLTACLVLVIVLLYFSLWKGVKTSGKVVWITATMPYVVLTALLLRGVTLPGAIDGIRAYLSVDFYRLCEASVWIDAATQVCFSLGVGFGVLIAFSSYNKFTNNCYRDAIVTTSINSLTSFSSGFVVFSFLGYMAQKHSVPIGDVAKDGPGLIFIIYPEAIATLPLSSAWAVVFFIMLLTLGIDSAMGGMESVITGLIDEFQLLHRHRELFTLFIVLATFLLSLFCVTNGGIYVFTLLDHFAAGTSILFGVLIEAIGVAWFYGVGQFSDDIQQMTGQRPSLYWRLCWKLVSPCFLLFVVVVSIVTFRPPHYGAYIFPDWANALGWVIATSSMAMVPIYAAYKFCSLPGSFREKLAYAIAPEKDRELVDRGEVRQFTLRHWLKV
T2 sequence (P31645 whole entry): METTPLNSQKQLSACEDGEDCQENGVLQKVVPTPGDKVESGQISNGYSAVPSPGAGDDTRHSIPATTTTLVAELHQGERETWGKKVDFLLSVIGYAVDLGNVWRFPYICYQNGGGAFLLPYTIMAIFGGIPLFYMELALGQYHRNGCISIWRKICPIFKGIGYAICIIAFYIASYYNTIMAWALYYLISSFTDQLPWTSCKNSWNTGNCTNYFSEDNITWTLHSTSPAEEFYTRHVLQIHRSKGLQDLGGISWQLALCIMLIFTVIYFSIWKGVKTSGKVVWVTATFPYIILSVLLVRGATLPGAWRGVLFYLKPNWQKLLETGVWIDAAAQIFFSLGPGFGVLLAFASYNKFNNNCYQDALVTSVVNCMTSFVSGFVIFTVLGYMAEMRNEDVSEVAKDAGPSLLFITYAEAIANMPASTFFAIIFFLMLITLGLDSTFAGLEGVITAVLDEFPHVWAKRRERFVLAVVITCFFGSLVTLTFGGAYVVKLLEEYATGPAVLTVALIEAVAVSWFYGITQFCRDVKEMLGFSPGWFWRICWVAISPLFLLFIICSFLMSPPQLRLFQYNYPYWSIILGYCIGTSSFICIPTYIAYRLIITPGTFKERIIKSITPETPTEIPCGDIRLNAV

Take `CNC(C)C(=O)c1ccc(C)cc1` (stereo not drawn) [4-MMC, 4-methyl-N-methylcathinone]: the “potency to inhibit VMAT2-mediated uptake, lower than that of MDMA” value with VMAT2 is 10 fold.

On to `CNC(C)C(=O)c1ccc(C(F)(F)F)cc1` (stereo not drawn) [4-TFMMC, 4-trifluoromethyl-N-methylcathinone], for which the IC50 against human DAT is > 100 µM. Further, the “extracellular DA” value with extracellular DA was “did not affect extracellular DA”.

On to `Cc1ccc(C(=O)[C@@H](C)N)cc1` [R-4-MC, 4-methylcathinone], for which the “effect on release of preloaded [3H]5-HT” value at human SERT [1] is on record as “did not alter basal release of 5-HT”. In addition, the “immobility time in the FST versus vehicle” value with C57BL/6N mice (1 mg kg-1 intraperitoneal), with C57BL/6N mice (5 mg kg-1 intraperitoneal) and with C57BL/6N mice (10 mg kg-1 intraperitoneal) was “had no effect” each time. Further, in assay [2], the “extracellular 5-HT in the NAc (GRAB5-HT fluorescence)” value is “no effect on 5-HT was observed”. Besides, the values for the IC50 on human DAT and at human SERT [3] were 9.6 µM and 186 µM, respectively. In addition, the DAT/SERT ratio on human DAT ((1/DAT IC50)/(1/SERT IC50), higher values indicate higher DAT-selectivity) is 19.3. In addition, the “5-HT release efficacy in rat brain synaptosomes” value in the assay with rat brain synaptosomes was “fully efficacious 5-HT releaser”.

Source of the values: publication PMC9645344, “Serotonin-releasing agents with reduced off-target effects” (Molecular Psychiatry, 2022).
